The values below come from patent US11040979B2, “Substituted pyrrolo[1,2-b]pyridazines for treating disorders related to KIT and PDGFR” (Blueprint Medicines Corporation, priority 2017, dated 2021).

Common to all, as to test: Kinase profiling with recombinant enzyme, 33P-ATP filter-binding method
Type in all cases: biochemical

One assay deals with PDGFRα D842V (Homo sapiens (Human), UniProt P16234, D842V). Conditions: poly[Glu:Tyr] (4:1), ATP (Km) 1 uM, read-out: INH-PDGFRα D842V (exon 18) IC50. Here is the method: (§1) KIT, KIT mutant, and PDGFRα mutant kinase profiling was performed with recombinant enzymes including wild-type KIT, KIT V560G, KIT V559D/T670I, V559D/V654A, and PDGFRα D842V. Kinase/substrate pairs were prepared in reaction buffer (20 mM Hepes (pH 7.5), 10 mM MgCl2, 1 mM EGTA, 0.02% Brij35, 0.02 mg/ml BSA, 0.1 mM Na3VO4, 2 mM DTT, 1% DMSO). Compounds were dissolved at 10 mM in 100% DMSO, serial diluted and added to the kinase/substrate mix in final concentrations from 10 uM to 0.5 pM. Compounds were incubated with the recombinant enzymes and substrates at room temperature for 20 minutes with their respective Km for ATP. ^33P-ATP (10 mCi/mL) was added to initiate the reaction. Incubation for two hours at room temperature was followed by spotting onto P81 ion exchange paper and detection of kinase activity by a filter-binding method.
Sequence of PDGFRα D842V (P16234 24-1089 D842V): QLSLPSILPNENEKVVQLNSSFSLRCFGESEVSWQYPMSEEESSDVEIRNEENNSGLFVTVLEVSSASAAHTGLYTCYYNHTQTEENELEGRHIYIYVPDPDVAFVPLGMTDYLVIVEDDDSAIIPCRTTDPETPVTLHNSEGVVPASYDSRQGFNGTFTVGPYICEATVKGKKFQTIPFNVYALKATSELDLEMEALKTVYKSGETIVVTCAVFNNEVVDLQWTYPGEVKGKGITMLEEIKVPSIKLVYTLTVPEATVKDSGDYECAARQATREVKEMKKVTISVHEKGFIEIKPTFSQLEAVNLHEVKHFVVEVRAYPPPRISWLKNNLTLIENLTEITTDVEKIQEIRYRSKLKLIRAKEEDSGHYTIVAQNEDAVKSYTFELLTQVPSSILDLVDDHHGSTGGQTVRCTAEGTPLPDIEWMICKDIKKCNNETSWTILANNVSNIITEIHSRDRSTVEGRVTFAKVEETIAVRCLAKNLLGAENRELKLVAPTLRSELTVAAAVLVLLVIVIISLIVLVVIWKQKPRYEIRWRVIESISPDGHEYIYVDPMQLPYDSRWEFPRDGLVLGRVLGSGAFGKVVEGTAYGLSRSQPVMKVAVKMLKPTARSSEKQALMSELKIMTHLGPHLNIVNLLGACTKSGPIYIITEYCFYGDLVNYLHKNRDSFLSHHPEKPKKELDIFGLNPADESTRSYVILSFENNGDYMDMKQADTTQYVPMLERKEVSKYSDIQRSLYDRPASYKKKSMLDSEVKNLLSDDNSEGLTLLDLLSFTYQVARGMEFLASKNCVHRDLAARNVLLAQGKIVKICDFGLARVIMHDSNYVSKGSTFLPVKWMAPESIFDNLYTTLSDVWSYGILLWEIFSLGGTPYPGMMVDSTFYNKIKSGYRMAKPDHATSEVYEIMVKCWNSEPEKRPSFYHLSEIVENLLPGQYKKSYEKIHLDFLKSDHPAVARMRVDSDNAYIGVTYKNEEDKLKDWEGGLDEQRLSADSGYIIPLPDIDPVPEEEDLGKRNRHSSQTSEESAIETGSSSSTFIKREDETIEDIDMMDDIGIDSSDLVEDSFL
(§2) Conditions for Specific Enzyme Assays:
(§3) Data was normalized to 0% and 100% inhibition controls and the IC50 calculated using a 4-parameter curve fit.

In a further assay the target is KIT V560G (Homo sapiens (Human), UniProt P10721, V560G). Conditions: c-KIT V560G, poly[Glu:Tyr] (4:1), ATP (Km) 20 uM; read-out: INH-KITV560G (exon 11) IC50. Here is the method: as §1, §2, §3
Sequence of KIT V560G (P10721 26-976 V560G): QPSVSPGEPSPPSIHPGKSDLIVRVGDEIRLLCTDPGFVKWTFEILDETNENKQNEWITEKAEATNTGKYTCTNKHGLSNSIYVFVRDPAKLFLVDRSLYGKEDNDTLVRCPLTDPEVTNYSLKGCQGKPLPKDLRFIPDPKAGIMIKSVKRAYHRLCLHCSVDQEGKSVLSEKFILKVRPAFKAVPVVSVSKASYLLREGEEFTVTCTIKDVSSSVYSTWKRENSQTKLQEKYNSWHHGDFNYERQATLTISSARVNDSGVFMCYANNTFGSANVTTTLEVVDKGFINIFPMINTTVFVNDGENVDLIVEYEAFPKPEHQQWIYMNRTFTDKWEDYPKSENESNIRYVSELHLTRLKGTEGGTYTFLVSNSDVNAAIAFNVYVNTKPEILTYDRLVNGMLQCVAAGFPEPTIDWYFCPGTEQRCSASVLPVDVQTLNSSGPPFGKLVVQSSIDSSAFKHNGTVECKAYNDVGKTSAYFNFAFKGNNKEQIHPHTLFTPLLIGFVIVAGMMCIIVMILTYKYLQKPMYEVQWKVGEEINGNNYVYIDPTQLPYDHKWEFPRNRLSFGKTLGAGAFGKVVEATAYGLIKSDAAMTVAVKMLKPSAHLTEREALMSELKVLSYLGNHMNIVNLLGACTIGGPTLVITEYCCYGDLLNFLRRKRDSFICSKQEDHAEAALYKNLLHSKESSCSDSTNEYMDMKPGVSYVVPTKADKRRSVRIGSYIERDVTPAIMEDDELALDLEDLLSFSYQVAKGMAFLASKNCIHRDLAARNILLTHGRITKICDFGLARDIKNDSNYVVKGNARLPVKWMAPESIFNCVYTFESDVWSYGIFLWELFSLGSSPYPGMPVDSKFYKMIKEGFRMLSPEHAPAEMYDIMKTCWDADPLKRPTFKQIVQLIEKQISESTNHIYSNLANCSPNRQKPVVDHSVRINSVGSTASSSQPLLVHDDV
Another assay concerns the target KIT V559D/V654A (Homo sapiens (Human), UniProt P10721, V559D/V654A). Conditions: c-KIT V559D/V654A, poly[Glu:Tyr] (4:1), ATP (Km) 20 uM; read-out: INH-KITV559D/V654A (exon 13) IC50. Here is the method: as §1, §2, §3
The target of a further assay is KIT V559D/T670I (Homo sapiens (Human), UniProt P10721, T670I/V559D). Conditions: c-KIT V559D/T670I, poly[Glu:Tyr] (4:1), ATP (Km) 5 uM; read-out: INH-KITV559D/T670I (exon 13) IC50. Here is the method:
as §1, §2, §3

The target of the next assay is wild-type KIT (Homo sapiens (Human), UniProt P10721). Conditions: c-KIT WT, poly[Glu:Tyr] (4:1), ATP (Km) 100 uM; read-out: INH-KITWT IC50. Here is the method:
as §1, §2, §3

Sequence of KIT V559D/T670I (P10721 26-976 V559D/T670I): as the sequence (P10721 26-976 V560G) above, with V534D, G535V, T645I counted along it
Sequence of KIT V559D/V654A (P10721 26-976 V559D/V654A): as the sequence (P10721 26-976 V560G) above, with V534D, G535V, V629A counted along it
Sequence of wild-type KIT (P10721 26-976): as the sequence (P10721 26-976 V560G) above, with G535V counted along it

In the case of `Cn1cc(-c2cc3c(N4CCN(c5ncc([C@@](C)(N)c6ccc(F)cc6)cn5)CC4)ccnn3c2)cn1` [Compound 1, (S)-1-(4-fluorophenyl)-1-(2-(4-(6-(1-methyl-1H-pyrazol-4-yl)pyrrolo[1,2-b]pyridazin-4-yl)piperazin-1-yl)pyrimidin-5-yl)ethanamine], the IC50 is less than 1 nM on PDGFRα D842V; 1.01 to 10 nM at KIT V560G; 1.01 to 10 nM at KIT V559D/V654A; 1.01 to 10 nM on KIT V559D/T670I; more than 100 nM at wild-type KIT.

Take `Cn1cc(-c2cc3c(N4CCN(c5ncc([C@@](C)(N)c6ccc(F)cc6)cn5)CC4)c(F)cnn3c2)cn1` [Compound 2, (S)-1-(2-(4-(3-fluoro-6-(1-methyl-11H-pyrazol-4-yl)pyrrolo[1,2-b]pyridazin-4-yl)piperazin-1-yl)pyrimidin-5-yl)-1-(4-fluorophenyl)ethanamine]: the IC50 on PDGFRα D842V is less than 1 nM; at KIT V560G, 10 to 100 nM; on KIT V559D/V654A it was 10 to 100 nM; at KIT V559D/T670I, 1.01 to 10 nM; at wild-type KIT, more than 100 nM.

On to `Cn1cc(-c2cc3c(N4CCN(c5ncc([C@@](C)(N)c6ccc(F)cc6)cn5)CC4)c(Cl)cnn3c2)cn1` [Compound 3, (S)-1-(2-(4-(3-chloro-6-(1-methyl-1H-pyrazol-4-yl)pyrrolo[1,2-b]pyridazin-4-yl)piperazin-1-yl)pyrimidin-5-yl)-1-(4-fluorophenyl)ethanamine], for which the IC50 on PDGFRα D842V is less than 1 nM; on KIT V560G, 10 to 100 nM; at KIT V559D/V654A it was more than 100 nM; at KIT V559D/T670I, 1.01 to 10 nM; on wild-type KIT, more than 100 nM.

Regarding `Cn1cc(-c2cc3c(N4CCN(c5ncc([C@@](C)(N)c6ccc(F)cc6)cn5)CC4)c(C#N)cnn3c2)cn1` [Compound 4, (S)-4-(4-(5-(1-amino-1-(4-fluorophenyl)ethyl)pyrimidin-2-yl)piperazin-1-yl)-6-(1-methyl-1H-pyrazol-4-yl)pyrrolo[1,2-b]pyridazine-3-carbonitrile], the IC50 at PDGFRα D842V was less than 1 nM; on KIT V560G, 1.01 to 10 nM; at KIT V559D/V654A, 10 to 100 nM; on KIT V559D/T670I, 1.01 to 10 nM; at wild-type KIT, more than 100 nM.
